Experiments:
[1] = preliminary administration experiment; format: in vivo; conditions: several persons who ingested the substance alone
[2] = administration of three kinds of samples for 2 months to groups of 30 persons; format: in vivo; conditions: numbers of the persons; administered for 2 months; group of 30 persons
Source text: (a) a sample of cholic acid alone,
(b) a sample of soybean isoflavone glycoside alone, and
were each administered for 2 months to each group containing 30 persons to be tested.

C[C@H](CCC(=O)O)[C@H]1CC[C@H]2[C@@H]3[C@H](O)C[C@@H]4C[C@H](O)CC[C@]4(C)[C@H]3C[C@H](O)[C@]12C [cholic acid]
troubles by drinking an alcoholic beverage [1]: ameliorated
Alcoholic beverage tasted good [2]: 8 Persons
Evacuation became easy [2]: 1 Person Persons
Feces amount increased [2]: No Person
No hangover noted [2]: 4 Persons
Significantly recovered from fatigue [2]: No Person

From patent US6793943B2, “Health food products” (priority 2000, dated 2004)
